From patent US9732077B2, “Diazepane orexin receptor antagonists” (MERCK SHARP & DOHME CORP., priority 2013, dated 2017) come the findings set out here.

Test [1] addresses T1, human orexin-2 receptor (Homo sapiens, UniProt O43614).
T1 construct: expressed in transfected cells; host or cells: CHO cells (G418 selection)
T1 sequence (O43614 1-444): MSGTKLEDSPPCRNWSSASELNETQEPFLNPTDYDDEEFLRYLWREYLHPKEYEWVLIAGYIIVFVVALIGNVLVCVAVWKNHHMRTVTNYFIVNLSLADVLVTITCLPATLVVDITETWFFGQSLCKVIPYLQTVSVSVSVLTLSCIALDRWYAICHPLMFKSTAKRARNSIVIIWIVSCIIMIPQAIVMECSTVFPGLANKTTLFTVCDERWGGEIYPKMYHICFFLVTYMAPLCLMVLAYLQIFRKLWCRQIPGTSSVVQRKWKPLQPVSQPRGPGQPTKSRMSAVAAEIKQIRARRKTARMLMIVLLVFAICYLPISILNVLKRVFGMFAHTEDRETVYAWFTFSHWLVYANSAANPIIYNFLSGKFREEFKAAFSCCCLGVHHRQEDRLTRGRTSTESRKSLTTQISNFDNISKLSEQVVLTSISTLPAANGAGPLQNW
Put plainly: OX2R FLIPR Ca flux assay (CHO cells). Format: cell-based. The note with it: for IC50: CHO cells expressing human orexin-2 receptor, agonist 70 pM Ala-6,12 orexin-A; for Fold Selectivity OX2R vs. OX1R: ratio of OX1R FLIPR to OX2R FLIPR. How it is done:
(§1) The utility of the compounds in accordance with the present invention as orexin receptor OX1R and/or OX2R antagonists may be readily determined without undue experimentation by methodology well known in the art, including the “FLIPR Ca^+ Flux Assay” (Okumura et al., Biochem. Biophys. Res. Comm. 280:976-981, 2001). In a typical experiment the OX1 and OX2 receptor antagonistic activity of the compounds of the present invention was determined in accordance with the following experimental method. For intracellular calcium measurements, Chinese hamster ovary (CHO) cells expressing the rat orexin-1 receptor or the human orexin-2 receptor, are grown in Iscove's modified DMEM containing 2 mM L-glutamine, […], 1% hypoxanthine-thymidine supplement, 100 U/ml penicillin, 100 μg/ml streptomycin and 10% heat-inactivated fetal calf serum (FCS). The cells are seeded at 20,000 cells/well into Becton-Dickinson black 384-well clear bottom sterile plates coated with poly-D-lysine. All reagents were from GIBCO-Invitrogen Corp. The seeded plates are incubated overnight at 37° C. and 5% CO2. Ala-6,12 human orexin-A as the agonist is prepared as a 1 mM stock solution in 1% bovine serum albumin (BSA) and diluted in assay buffer (HBSS containing 20 mM HEPES, 0.1% BSA and 2.5 mM probenecid, pH7.4) for use in the assay at a final concentration of 70 pM. Test compounds are prepared as 10 mM stock solution in DMSO, then diluted in 384-well plates, first in DMSO, then assay buffer. On the day of the assay, cells are washed 3 times with 100 μl assay buffer and then incubated for 60 min (37° C., 5% CO2) in 60 μl assay buffer containing 1 μM Fluo-4AM ester, 0.02% pluronic acid, and 1% BSA. The dye loading solution is then aspirated and cells are washed 3 times with 100 μl assay buffer. 30 μl of that same buffer is left in each well. Within the Fluorescent Imaging Plate Reader (FLIPR, Molecular Devices), test compounds are added to the plate in a volume of 25 μl, incubated for 5 min and finally 25 μl of agonist is added. Fluorescence is measured for each well at 1 second intervals for 5 minutes and the height of each fluorescence peak is compared to the height of the fluorescence peak induced by 70 pM Ala-6,12 orexin-A with buffer in place of antagonist. For each antagonist, IC50 value (the concentration of compound needed to inhibit 50% of the agonist response) is determined. Alternatively, compound potency can be assessed by a radioligand binding assay (described in Bergman et. al. Bioorg. Med. Chem. Lett. 2008, 18, 1425-1430) in which the inhibition constant (Ki) is determined in membranes prepared from CHO cells expressing either the OX1 or OX2 receptor. The intrinsic orexin receptor antagonist activity of a compound which may be used in the present invention may be determined by these assays.

The target of test [2] is T2, rat orexin-1 receptor (Rattus norvegicus, UniProt P56718).
T2 construct: expressed in transfected cells; host or cells: CHO cells (G418 selection)
T2 sequence (P56718 1-416): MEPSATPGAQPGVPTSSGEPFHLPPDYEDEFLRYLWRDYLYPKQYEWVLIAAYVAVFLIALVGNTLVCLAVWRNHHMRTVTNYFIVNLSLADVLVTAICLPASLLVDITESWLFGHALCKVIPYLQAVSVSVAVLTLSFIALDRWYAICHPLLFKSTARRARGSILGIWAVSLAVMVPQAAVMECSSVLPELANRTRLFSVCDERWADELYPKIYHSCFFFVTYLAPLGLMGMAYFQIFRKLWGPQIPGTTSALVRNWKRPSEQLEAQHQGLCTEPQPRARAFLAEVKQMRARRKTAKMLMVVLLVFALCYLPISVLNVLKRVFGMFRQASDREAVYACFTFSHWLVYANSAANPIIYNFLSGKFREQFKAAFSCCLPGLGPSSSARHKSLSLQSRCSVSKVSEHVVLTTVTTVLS
As to the kind of experiment: OX1R FLIPR Ca flux assay (CHO cells). Format: cell-based. Particulars: CHO cells expressing rat orexin-1 receptor; agonist 70 pM Ala-6,12 orexin-A. The protocol: as §1

The IC50 is the concentration at which inhibition is half-maximal. Read a high IC50 as lower potency. Take `Cc1cc(C)nc(N2CCCN(C(=O)c3cccnc3OCC(F)(F)F)CC2)n1` [Example 1, (4-(4,6-dimethylpyrimidin-2-yl)-1,4-diazepan-1-yl)(2-(2,2,2-trifluoroethoxy)pyridin-3-yl)methanone]: in test [1], the IC50 is 18 nM and the “Fold Selectivity OX2R vs. OX1R” value turned out to be 343 fold. Besides, the IC50 in test [2] came to 6170 nM.

`Cc1cc(C)nc(N2CCCN(C(=O)c3ccccc3-n3nccn3)CC2)n1` [Example 2, (2-(2H-1,2,3-triazol-2-yl)phenyl)(4-(4,6-dimethylpyrimidin-2-yl)-1,4-diazepan-1-yl)methanone]: in test [1], the IC50 came to 28 nM and the “Fold Selectivity OX2R vs. OX1R” value was found to be 96 fold. In test [2], this compound yielded an IC50 of 2700 nM.

In the case of `Cc1cc(C)nc(N2CCCN(C(=O)c3ccc(F)cc3-n3nccn3)CC2)n1` [Example 3, 1-(4,6-dimethylpyrimidin-2-yl)-4-{[4-fluoro-2-(2H-1,2,3-triazol-2-yl)phenyl]carbonyl}-1,4-diazepane], in test [1], the 50% inhibitory concentration (IC50) came to 35 nM and the “Fold Selectivity OX2R vs. OX1R” value stood at 142 fold. In test [2], the IC50 was determined as 4980 nM.

Regarding `Cc1cc(C)nc(N2CCCN(C(=O)c3cccnc3OC(C)C)CC2)n1` [Example 4, 1-(4,6-dimethylpyrimidin-2-yl)-4-{[2-(1-methylethoxy)pyridin-3-yl]carbonyl}-1,4-diazepane], in test [1], the IC50 was 106 nM and the “Fold Selectivity OX2R vs. OX1R” value is over 94 fold. Further, in test [2], the IC50 was over 10000 nM.

In the case of `Cc1cc(C)nc(N2CCCN(C(=O)c3ccccc3OC(F)F)CC2)n1` [Example 5, 1-{[2-(difluoromethoxy)phenyl]carbon-yl}-4-(4,6-dimethylpyrimidin-2-yl)-1,4-diazepane], in test [1], the IC50 was 76 nM and the “Fold Selectivity OX2R vs. OX1R” value is listed as over 131 fold. In test [2], the IC50 was over 10000 nM.

Regarding `Cc1cc(C)nc(N2CCCN(C(=O)c3cccnc3OCC(F)F)CC2)n1` [Example 6, 1-{[2-(2,2-difluoroethoxy)pyridin-3-yl]carbonyl}-4-(4,6-dimethylpyrimidin-2-yl)-1,4-diazepane], in test [1], the concentration for half-maximal inhibition (IC50) is 20 nM and the “Fold Selectivity OX2R vs. OX1R” value is given as over 500 fold. The compound also registered a 50% inhibitory concentration (IC50) in test [2] of over 10000 nM.

In the case of `CCOc1ccccc1C(=O)N1CCCN(c2nc(C)cc(C)n2)CC1` [Example 7, 1-(4,6-dimethylpyrimidin-2-yl)-4-[(2-ethoxyphenyl)carbonyl]-1,4-diazepane], the IC50 was 64 nM in test [1] and 8500 nM in test [2]. Moreover, the “Fold Selectivity OX2R vs. OX1R” value in test [1] was found to be 132 fold.

For the compound `Cc1cc(C)nc(N2CCCN(C(=O)c3ccccc3-n3cccn3)CC2)n1` [Example 8, 1-(4,6-dimethylpyrimidin-2-yl)-4-{[2-(1H-pyrazol-1-yl)phenyl]carbonyl}-1,4-diazepane], the IC50 was 88 nM in test [1] and over 10000 nM in test [2]. Besides, the “Fold Selectivity OX2R vs. OX1R” value in test [1] is over 113 fold.

`Cc1cc(C)nc(N2CCCN(C(=O)c3ccccc3C3CC3)CC2)n1` [Example 9, 1-[(2-cyclopropylphenyl)-carbonyl]-4-(4,6-dimethylpyrimidin-2-yl)-1,4-diazepane]: in test [1], the IC50 stood at 17 nM and the “Fold Selectivity OX2R vs. OX1R” value was 106 fold. In test [2], this compound had an IC50 of 1810 nM.

With `Cc1cc(C)nc(N2CCCN(C(=O)c3ccccc3OC(F)(F)F)CC2)n1` [Example 10, 1-(4,6-dimethylpyrimidin-2-yl)-4-{[2-(trifluoromethoxy)-phenyl]carbonyl}-1,4-diazepane], in test [1], the IC50 came out at 36 nM and the “Fold Selectivity OX2R vs. OX1R” value is given as over 277 fold. The IC50 in test [2] is over 10000 nM.

Consider `Cc1cc(C)nc(N2CCCN(C(=O)c3cccnc3-c3ccccc3)CC2)n1` [Example 11, 1-(4,6-dimethylpyrimidin-2-yl)-4-[(2-phenylpyridin-3-yl)carbonyl]-1,4-diazepane], for which, in test [1], the IC50 is 166 nM and the “Fold Selectivity OX2R vs. OX1R” value was over 60 fold. The IC50 in test [2] is over 10000 nM.

For `Cc1oc(N2CCCN(C(=O)c3ccccc3OC(F)F)CC2)nc1C(C)(C)O` [Example 12, (2-(difluoromethoxy)phenyl)(4-(4-(2-hydroxypropan-2-yl)-5-methyloxazol-2-yl)-1,4-diazepan-1-yl)methanone], in test [1], the IC50 was found to be 12 nM and the “Fold Selectivity OX2R vs. OX1R” value turned out to be 332 fold. Further, the concentration for half-maximal inhibition (IC50) in test [2] amounted to 3990 nM.

For the compound `Cc1oc(N2CCCN(C(=O)c3ccccc3-n3nccn3)CC2)nc1C(C)(C)O` [Example 13, 2-[5-methyl-2-(4-{[2-(2H-1,2,3-triazol-2-yl)phenyl]carbonyl}-1,4-diazepan-1-yl)-1,3-oxazol-4-yl]propan-2-ol], the concentration for half-maximal inhibition (IC50) turned out to be 27 nM in test [1] and 1270 nM in test [2]. In addition, the “Fold Selectivity OX2R vs. OX1R” value in test [1] is reported as 47 fold.

Consider `Cc1oc(N2CCCN(C(=O)c3cccnc3OC(C)C)CC2)nc1C(C)(C)O` [Example 14, 2-[5-methyl-2-(4-{[2-(1-methylethoxy)pyridin-3-yl]carbonyl}-1,4-diazepan-1-yl)-1,3-oxazol-4-yl]propan-2-ol], for which, in test [1], the IC50 is 41 nM and the “Fold Selectivity OX2R vs. OX1R” value is on record as over 244 fold. For the same compound, in test [2], the IC50 was over 10000 nM.

For `Cc1oc(N2CCCN(C(=O)c3ccccc3OC(F)(F)F)CC2)nc1C(C)(C)O` [Example 15, 2-[5-methyl-2-(4-{[2-(trifluoromethoxy)phenyl]carbonyl}-1,4-diazepan-1-yl)-1,3-oxazol-4-yl]propan-2-ol], in test [1], the IC50 came to 21 nM and the “Fold Selectivity OX2R vs. OX1R” value was found to be 137 fold. In test [2], the IC50 is 2880 nM.

Consider `Cc1oc(N2CCCN(C(=O)c3cccnc3OCC(F)F)CC2)nc1C(C)(C)O` [Example 16, 2-[2-(4-{[2-(2,2-difluoroethoxy)pyridin-3-yl]carbonyl}-1,4-diazepan-1-yl)-5-methyl-1,3-oxazol-4-yl]propan-2-ol], for which, in test [1], the IC50 stood at 26 nM and the “Fold Selectivity OX2R vs. OX1R” value turned out to be 142 fold. In addition, the IC50 in test [2] is 3690 nM.

Turning to `Cc1oc(N2CCCN(C(=O)c3cccnc3OCC(F)(F)F)CC2)nc1C(C)(C)O` [Example 17, 2-[5-methyl-2-(4-{[2-(2,2,2-trifluoroethoxy)pyridin-3-yl]carbonyl}-1,4-diazepan-1-yl)-1,3-oxazol-4-yl]propan-2-ol], in test [1], the IC50 turned out to be 17 nM and the “Fold Selectivity OX2R vs. OX1R” value was determined as 146 fold. For the same compound, in test [2], the IC50 worked out at 2490 nM.

In the case of `Cc1ccc(-n2nccn2)c(C(=O)N2CCCN(c3nc4ccccc4o3)CC2)c1` [Example B-3, reference compound], the “selectivity between orexin-2 receptor and orexin-1 receptor (in words)” value in test [1] (comparison with diazepane compounds of WO 2007/126935, whole cell FLIPR functional assay) is “greater selectivity for the orexin-1 receptor than for the orexin-2 receptor”.
